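The compound was tested at five concentrations on cells cultured in 96-well plates, with a 48-hour exposure period. Abbreviation: GI50, concentration required for 50% inhibition of growth. TGI: total growth inhibition.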
How the values were obtained:
Assay in all cases: NCI-60 cell line screen, 48 h
COLO 205 colon = system: COLO 205 colon
NCI-H460 lung = system: NCI-H460 lung
NCI-H226 lung = system: NCI-H226 lung
SN12C renal = system: SN12C renal
OVCAR-4 ovarian = system: OVCAR-4 ovarian
PC-3 prostate = system: PC-3 prostate
SF-295 CNS = system: SF-295 CNS
CCRF-CEM leukemia = system: CCRF-CEM leukemia
U251 CNS = system: U251 CNS
NCI-H522 lung = system: NCI-H522 lung
RPMI-8226 leukemia = system: RPMI-8226 leukemia
K-562 leukemia = system: K-562 leukemia
ACHN renal = system: ACHN renal
SK-MEL-2 melanoma = system: SK-MEL-2 melanoma
HS 578T breast = system: HS 578T breast
DU-145 prostate = system: DU-145 prostate
BT-549 breast = system: BT-549 breast
SK-MEL-5 melanoma = system: SK-MEL-5 melanoma
IGROV1 ovarian = system: IGROV1 ovarian
M14 melanoma = system: M14 melanoma
MDA-MB-231 breast = system: MDA-MB-231 breast
HT29 colon = system: HT29 colon
CAKI-1 renal = system: CAKI-1 renal
NCI-H23 lung = system: NCI-H23 lung
HCT-15 colon = system: HCT-15 colon
A549 NSCLC = system: A549 NSCLC

CC(=O)O[C@H]1CC[C@@]2(C)[C@@H](CC[C@@H]3[C@@H]2CC[C@]2(C)C=C(C=O)C[C@@H]32)C1
GI50 (COLO 205 colon): 19 µM | TGI (COLO 205 colon): 39.2 µM | GI50 (NCI-H460 lung): 20.6 µM | TGI (NCI-H460 lung): 42.4 µM | GI50 (NCI-H226 lung): 28.8 µM | TGI (NCI-H226 lung): > 100 µM | GI50 (SN12C renal): 3.42 µM | TGI (SN12C renal): 10.6 µM | GI50 (OVCAR-4 ovarian): 3.48 µM | TGI (OVCAR-4 ovarian): 13.8 µM | GI50 (PC-3 prostate): 6.53 µM | TGI (PC-3 prostate): 27.5 µM | GI50 (SF-295 CNS): 17.4 µM | TGI (SF-295 CNS): 36 µM | GI50 (CCRF-CEM leukemia): 2.48 µM | TGI (CCRF-CEM leukemia): 6.75 µM | GI50 (U251 CNS): 2.02 µM | TGI (U251 CNS): 4.9 µM | GI50 (NCI-H522 lung): 21.1 µM | TGI (NCI-H522 lung): 45.6 µM | GI50 (RPMI-8226 leukemia): 2.74 µM | TGI (RPMI-8226 leukemia): 8.16 µM | GI50 (K-562 leukemia): 3.74 µM | TGI (K-562 leukemia): 16.5 µM | GI50 (ACHN renal): 20.2 µM | TGI (ACHN renal): 60.8 µM | GI50 (SK-MEL-2 melanoma): 7.53 µM | TGI (SK-MEL-2 melanoma): 23.1 µM | GI50 (HS 578T breast): 4.41 µM | TGI (HS 578T breast): 50.1 µM | GI50 (DU-145 prostate): 4.75 µM | TGI (DU-145 prostate): 15.9 µM | GI50 (BT-549 breast): 12.1 µM | TGI (BT-549 breast): 32.3 µM | GI50 (SK-MEL-5 melanoma): 3.56 µM | TGI (SK-MEL-5 melanoma): 14.4 µM | GI50 (IGROV1 ovarian): 3.73 µM | TGI (IGROV1 ovarian): 14.6 µM | GI50 (M14 melanoma): 4.74 µM | TGI (M14 melanoma): 20.8 µM | GI50 (MDA-MB-231 breast): 10.6 µM | TGI (MDA-MB-231 breast): 27.5 µM | GI50 (HT29 colon): 8.32 µM | TGI (HT29 colon): 25.6 µM | GI50 (CAKI-1 renal): 29.8 µM | TGI (CAKI-1 renal): 98.1 µM | GI50 (NCI-H23 lung): 10.5 µM | TGI (NCI-H23 lung): 31.1 µM | GI50 (HCT-15 colon): 2.26 µM | TGI (HCT-15 colon): 12.1 µM | GI50 (A549 NSCLC): 25.8 µM | TGI (A549 NSCLC): > 100 µM

Source: PubChem BioAssay (NCI)
